What was measured:
ACE2 [1] = biological target: T1, ACE2 (Homo sapiens, UniProt Q9BYF1); assay: ACE2 enzyme kinetics study with QFS (Example 5); type: biochemical; conditions: rhACE2 0.1 ng/μL, ACE2 QFS 0-100 μM; pre-incubation 1 h at 37° C.
T1 construct: purchased R & D systems 933-ZN-010
Procedure: (§1) Plate reader-based enzyme assays were performed using a quenched fluorescent substrate (QFS) in a 96-well format using a SpectraMAX M4 Microplate reader (Molecular Devices). The increase in fluorescence following addition of QFS (40 μM) was taken as evidence of enzyme activity. Fluorescence was monitored over 2 h at 37° C. using κEx=320 nm and λEm=405 nm. Assays were conducted in black 96-well plates. Specific enzyme activity was expressed as a rate of substrate cleavage calculated using a standard curve of 7-methoxy-coumarin-4-acetic acid.
In all plate reader-based enzyme assays using QFS, the reaction rate (μmol of substrate cleaved/min) was calculated using linear regression analysis (GraphPad Prism software version 8.01). The reaction rates calculated were used to generate the enzyme kinetic parameters Vmax and Km through non-linear regression analysis (GraphPad Prism software, version 8.01; Michaelis-Menten equation). Where indicated, enzyme activity in the presence of peptide was expressed as a % of the enzyme alone. Data were expressed as mean±SEM and statistical significance was determined using t-tests or one-way ANOVAs followed by Tukey's post-hoc test. P<0.05 was considered as statistically significant. In all assays conducted using 96-well plates, the reaction mixtures in each well were considered an independent experiment. […]

ACE2 [2] = biological target: T1, ACE2; assay: QFS assay of Aβ-degrading enzymes: ACE2 (Example 6); type: biochemical
Procedure: as §1
In all plate reader-based enzyme assays using QFS, the reaction rate (μmol of substrate cleaved/min) was calculated using linear regression analysis (GraphPad Prism software version 8.01). The reaction rates calculated were used to generate the enzyme kinetic parameters Vmax and Km through non-linear regression analysis (GraphPad Prism software, version 8.01; Michaelis-Menten equation). Where indicated, enzyme activity in the presence of peptide was expressed as a % of the enzyme alone. Data were expressed as mean±SEM and statistical significance was determined using t-tests or one-way ANOVAs followed by Tukey's post-hoc test. P<0.05 was considered as statistically significant. In all assays conducted using 96-well plates, the reaction mixtures in each well were considered an independent experiment.
SEQ ID NO:2 was assessed in a QFS assay against enzymes NEP, ECE1, ECE2, ACE1, ACE2, IDE and MMP-2 using the method in Example 2 and the following procedure. NEP, ACE1, ECE2 (0.05 ng/μL), ACE2, IDE (0.10 ng/μL), and ECE1 (6.4 ng/μL) were incubated with SEQ ID NO:2 (0.9-26 μM) or scrambled control (9 μM) for 1 h at 37° C. Prior to use, MMP2 (0.50 ng/μL) was activated using p-aminophenylmercuric acetate to a final concentration of 100 μM for 1 h at 37° C. Following activation, MMP2 was incubated with SEQ ID NO:2 for 1 h at 37° C. before adding the appropriate QFS.

EA.hy926 cells = assay: Peptide stability study in EA.hy926 endothelial cells, LCMS (Example 4); type: in vitro ADME; conditions: peptide 9 μM, Opti-MEM
Procedure: SEQ ID NO:2 was prepared as a C-terminal amidated analogue of SEQ ID NO:1. The stability of SEQ ID NO:1 and SEQ ID NO:2 was assessed in HEK293 and EA.hy926 cells grown in culture and their break down was monitored by LCMS over 60 min using the following procedure.
HEK293 (passage 24) or Ea.hy926 (passage 37) were seeded into tissue-culture-grade 96-well plates at a density of 20,000 cells/well. After 24 hr, cells were washed with PBS and replaced with Opti-MEM reduced serum media containing SEQ ID NO:1 or SEQ ID NO:2 (9 μM). Aliquots of equal volume were taken at T=0 and 60 min. SEQ ID NO:2 was added to control wells having media (no cells) only. Samples were immediately acidified in 0.1% TFA, snap frozen in dry ice and stored in −80° C. until analysed by LCMS.
Samples were analyzed by LC-MS/MS on a Shimadzu Nexera uHPLC (Japan) coupled to a Triple Tof 5600 mass spectrometer (ABSCIEX, Canada) equipped with a duo electrospray ion source. One μL of each extract was injected onto a 2.1 mm×100 mm Zorbax C18 1.8 um column (Agilent) at 200 μL/min. […] SEQ ID NO:1 and SEQ ID NO:2 were quantified using the […] doubly charged molecular ion from m/z 510.270 to 510.325. The data was acquired using Analyst TF 1.6 and quantification was carried out using MultiQuant 2.1.1 software (ABSCIEX, Canada).

T1 sequence (Q9BYF1 18-805): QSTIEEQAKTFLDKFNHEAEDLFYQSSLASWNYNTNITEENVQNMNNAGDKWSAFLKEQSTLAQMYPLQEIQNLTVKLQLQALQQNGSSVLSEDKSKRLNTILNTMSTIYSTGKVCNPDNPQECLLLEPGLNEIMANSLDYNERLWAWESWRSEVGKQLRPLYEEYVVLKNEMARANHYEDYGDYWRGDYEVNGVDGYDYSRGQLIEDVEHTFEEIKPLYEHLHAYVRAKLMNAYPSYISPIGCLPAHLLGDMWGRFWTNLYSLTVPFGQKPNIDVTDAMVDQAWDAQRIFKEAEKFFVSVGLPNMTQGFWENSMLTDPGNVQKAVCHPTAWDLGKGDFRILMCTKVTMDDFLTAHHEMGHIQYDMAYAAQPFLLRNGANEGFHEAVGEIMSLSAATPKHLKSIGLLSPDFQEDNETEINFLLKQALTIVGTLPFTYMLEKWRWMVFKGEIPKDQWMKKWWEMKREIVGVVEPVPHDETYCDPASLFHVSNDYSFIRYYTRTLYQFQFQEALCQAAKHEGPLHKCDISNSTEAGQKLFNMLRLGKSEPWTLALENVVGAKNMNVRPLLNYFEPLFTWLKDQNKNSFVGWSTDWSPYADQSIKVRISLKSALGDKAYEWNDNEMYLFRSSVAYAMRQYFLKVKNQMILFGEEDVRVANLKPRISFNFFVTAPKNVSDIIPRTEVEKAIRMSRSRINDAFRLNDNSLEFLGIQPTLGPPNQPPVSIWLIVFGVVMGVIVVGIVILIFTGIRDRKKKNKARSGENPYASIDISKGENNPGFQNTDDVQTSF

**Q.** What does the source list for “H-SLFELGKMIL-NH2 [SEQ ID NO:2, H2N-SLFELGKMIL-NH2]”?
**A.** vmax of rhACE2 in the presence of peptide (ACE2 [1]): 0.09±0.002 μmol substrate cleaved/min; ACE2 activity compared with respective enzyme alone (ACE2 [2]; peptide 2 μM (FIG. 2c)): significantly increased; activity of ACE2 as % of enzyme alone controls (ACE2 [2]; peptide 9 μM): 283%; ACE2 activity, concentration dependence (ACE2 [2]; peptide 0.9-26 μM): increased the activity; relative amount remaining in the medium of endothelial cells at 60 min (EA.hy926 cells): 26%±5%
